Results taken from patent publication US12139815B2, “Methods for rapid detection of immunogenic epitopes in biothreat agents and emerging pathogens for peptide vaccines and therapeutics” (priority 2021, dated 2024).

Test system: antibodies from sera of mice immunized with Ft-ΔclpB
Format: binding, mouse

Sequence | enrichment in Experiment samples relative to Control samples (in words)
DNTTIIDGAGEK [SEQ ID NO: 7] | enriched
EGVITVEEGK (listed as Francisella tularensis) [SEQ ID NO: 8] | enriched
